Values quoted from earlier work as cited in patent US20110159054A1, “NANOPARTICULATE BICALUTAMIDE FORMULATIONS” (Elan Pharma International Ltd., priority 2004, published 2011).

Details: 37° C., practically insoluble

solubility in water: 5 mg per 1000 mL
Compound: CC(O)(CS(=O)(=O)c1ccc(F)cc1)C(=O)Nc1ccc(C#N)c(C(F)(F)F)c1 (racemic) [Bicalutamide]
